Source: publication PMC8318231, “Rate-of-Kill (RoK) assays to triage large compound sets for Chagas disease drug discovery: Application to GSK Chagas Box” (PLoS Neglected Tropical Diseases, 2021)

Tested on: T. cruzi intracellular amastigotes in H9c2 cells
Assay: Rate-of-Kill (RoK) high-content imaging assay, amastigotes per cell (AM/CELL) and curve descriptors
Type: cell-based, Trypanosoma cruzi
Parameters: key to ME_24h / ME_48h / ME_72h: % reduction in parasite burden (cidal response); t50pct_MCC50 / t50pct_Cmax: unit not given here
Details: for ME_24h: 24h; for ME_48h: 48h; for ME_72h: 72h; for AM/CELL NORM: figure 4 A; for tlag_Cmax / t50pct_Cmax: at Cmax; for t50pct_MCC50 / tlag_MCC50: at MCC50, figure 5; for ME_24h (%): maximum effect at 24 h; for ME_24h (%) / ME_48h (%) / ME_72h (%): RoK assay; for ME_48h (%): maximum effect at 48 h; for ME_72h (%): maximum effect at 72 h; for ME 24h (maximum effect at 24 hours, intracellular amastigotes): maximum percentage of parasite burden reduction reached by any concentration
How it was run: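 Readouts at each time point are amastigotes per cell and host nuclei count (cytotoxicity), from DRAQ5 high-content imaging. Infection: trypomastigotes on H9c2 at MOI 8 for 18 h. Dosing was 5 μM single point or 11 points, 1/3 steps from 50 μM. Effect scaled between 4 h infected and uninfected controls.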

`COc1ccc(NS(=O)(=O)c2cc(NC(=O)Cc3ccc(C)cc3)ccc2N2CCOCC2)cc1` [TCMDC-143313] was tested, and the ME_24h (figure 5) was -207.804, the ME_48h (figure 5) was -855.253 and the ME_72h (figure 5) was -1487.77. For the same compound, the “MCCE” value (RoK curve descriptor) was 0.2 µM, the “AM/CELL NORM” value (Time 4) was -12.1404 and the “AM/CELL NORM” value (Time 24) was -266.8. The “AM/CELL NORM” value (Time 48) was -1156.6, the “AM/CELL NORM” value (Time 72) was -1899.09 and the “tlag_Cmax” value was 72.0 h. The t50pct_Cmax (figure 5) was 72, the tlag_Cmax (figure 5) was 72 and the t50pct_MCC50 was 72. The tlag_MCC50 was 72, the MCC50 (figure 5) was 50 µM and the MCCE (figure 5) was 0.2058. For the same compound, the “ME_24h (%)” value was -207.8%, the “ME_48h (%)” value was -855.3% and the “ME_72h (%)” value was -1487.8%. The “ME 24h (maximum effect at 24 hours, intracellular amastigotes)” value was 23.7828%.

`COc1cc(NC(=O)Nc2cccc(CNC(=O)OC3CCCCC3)c2)ccc1-c1cnco1` [TCMDC-143376] showed an ME_24h (figure 5) of -229.157, an ME_48h (figure 5) of -76.0857 and an ME_72h (figure 5) of -0.198. The “MCCE” value (RoK curve descriptor) was 0.6 µM, the “AM/CELL NORM” value (Time 4) was -2.926 and the “AM/CELL NORM” value (Time 24) was -229.157. The “AM/CELL NORM” value (Time 48) was -76.0857, the “AM/CELL NORM” value (Time 72) was -16.3246 and the “tlag_Cmax” value was 24.0 h. It also gave a t50pct_Cmax (figure 5) of 72, a tlag_Cmax (figure 5) of 24 and a t50pct_MCC50 of 72. It also gave a tlag_MCC50 of 72, an MCC50 (figure 5) of 50 µM and an MCCE (figure 5) of 0.6173. The “ME_24h (%)” value was -229.2%, the “ME_48h (%)” value was -76.1% and the “ME_72h (%)” value was -0.2%. The “ME 24h (maximum effect at 24 hours, intracellular amastigotes)” value was 42.5513%.
